Reference: US7250511B2, “Process for the preparation of cyclopenta[g]quinazoline derivatives” (BTG International Limited, priority 2001, dated 2007)

## C#CCN(c1ccc(C(=O)O)cc1)C1CCc2cc3nc(C)[nH]c(=O)c3cc21 (racemic) [Example 1, 4{N-[(6RS)-2-Methyl-4-oxo-3,4,7,8-tetrahydro-6H-cyclopenta[g]quinazolin-6-yl]-N-(prop-2-ynyl)amino}benzoic acid]
  melting point: 305 to 307 °C

## C#CCN(c1ccc(C(=O)N[C@@H](CCC(=O)N[C@H](CCC(=O)O)C(=O)O)C(=O)O)cc1)C1CCc2cc3nc(COC)[nH]c(=O)c3cc21 (mixture of isomers) [Example 2, N-{N-{4-[N-((6RS)-2-Methoxymethyl4oxo-3,4,7,8-tetrahydro-6H-cyclopent[g]quinazolin-6-yl)-N-(prop-2-ynyl)amino]-benzoyl}-L-γ-glutamyl}-D-glutamic acid]
  melting point: 150 to 155 °C

## C#CCN(c1ccc(C(=O)N[C@@H](CCC(=O)N[C@H](CCC(=O)O)C(=O)O)C(=O)O)c(F)c1)C1CCc2cc3nc(C)[nH]c(=O)c3cc21 (mixture of isomers) [Example 4, N-{N-{4[N-((6RS)-2-methyl-4-oxo-3,4,7,8-tetra-hydro-6H-cyclopental[g]quinazolin-6-yl)-N-(prop2-ynyl)amino]-2-fluoro-benzoyl}-L-γ-glutamyl}-D-glutamic acid]
  melting point: 175 °C (dec.)

## C#CCN(c1ccc(C(=O)N[C@@H](CCC(=O)N(C)[C@@H](CCC(=O)O)C(=O)O)C(=O)O)cc1)C1CCc2cc3nc(CO)[nH]c(=O)c3cc21 (mixture of isomers) [Example 5, N-{N-{4-[N-((6RS)-2-hydroxymethyl-4-oxo-3,4,7,8-tetrahydro-6H-cyclopenta[g]quinazolin-6yl)-N-(prop-2-ynyl)amino]-benzoyl}-L-γ-glutamyl}-N-methyl-L-glutamic acid]
  melting point: > 165 °C (dec.)
